Key:
[1] = test system: Varroa mites; details: concentrated enough to kill the mites but not to harm the bees; cited from earlier work
[2] = Simulated bee-flight (drone propeller) thymol decay and model of thymol dosage on a worker bee; design: species or system honey bee; details: 1 mg thymol/Hydromed behind drone propellers, 6 hours per day, exponential decay
Description: As such, a single worker bee would pass through the DF-TE 40×, receiving ˜0.7 μg per passage, or 28 μg per day.

**Q.** What does the source list for `Cc1ccc(C(C)C)c(O)c1` [thymol]?
**A.** therapeutic window of thymol vapor [1]: 5-15 microgram/liter of hive air; time until a single daily dose of thymol is exhausted on the bee abdomen [2]: ≤ 4 days
